# Entries after “also recorded” stand apart in the source; their conditions may differ.
# Experiments:
# Format in all cases: in vivo
# [1] = tested on: Amaranthus hybridus L. (smooth pigweed), Group 2,5 Resistant; test: Post-emergent treatment of potted weeds with herbicide composition, 7 day growth (FIG. 7); conditions: 1% Juglone; weeds about 0-2 weeks post emergent (about 2-5 cm); 7 days after treatment
# Protocol: (§1) Referring now to the figures, pictures of various weeds are shown herein after being treated with an herbicide composition described herein. In all of the pictures provided herein, weeds that were about 0-2 weeks post emergent (e.g. about 2-5 cm in height) were treated with an herbicide composition having a 1% Juglone concentration. In most cases, plant damage was observed within two hours of treatment of the weeds with the herbicide composition.
# FIG. 7 is a picture of three pots showing 7 day growth of Amaranthus hybridus L. (smooth pigweed), Group 2,5 Resistant, when left untreated, treated with 1% Juglone, and treated with a control (i.e. solvent/surfactant, no active ingredient), respectively.
# [2] = tested on: Solanum ptycanthum (eastern black nightshade), Group 2 Resistant; test: Post-emergent treatment of potted weeds with herbicide composition, 7 day growth (FIG. 6); conditions: 1% Juglone; weeds about 0-2 weeks post emergent (about 2-5 cm); 7 days after treatment
# Protocol: as §1
# FIG. 6 is a picture of two pots showing 7 day growth of Solanum ptycanthum (eastern black nightshade), Group 2 Resistant, when left untreated and treated with […] Juglone, respectively.
# weeds = test: Onset of plant damage after treatment of weeds with herbicide composition; conditions: 1% Juglone concentration; weeds about 0-2 weeks post emergent; in most cases
# Protocol: as §1
# [3] = tested on: Chenopodium album L. (lamb's quarters), Group 2,5 Resistant; test: Post-emergent treatment of potted weeds with herbicide composition, 7 day growth (FIG. 4); conditions: 1% Juglone; weeds about 0-2 weeks post emergent (about 2-5 cm); 7 days after treatment
# Protocol: as §1
# FIG. 4 is a picture of three pots showing 7 day growth of Chenopodium album L. (lamb's quarters), Group 2,5 Resistant, when left untreated, treated with 1% Juglone, and treated with a control (i.e. solvent/surfactant, no active ingredient), respectively.
# [4] = tested on: Amaranthus retroflexus L. (pigweed), Group 2,5 Resistant; test: Post-emergent treatment of potted weeds with herbicide composition, 7 day growth (FIG. 5); conditions: 1% Juglone; weeds about 0-2 weeks post emergent (about 2-5 cm); 7 days after treatment
# Protocol: as §1
# FIG. 5 is a picture of two pots showing 7 day growth of Amaranthus retroflexus L. (pigweed), Group 2,5 Resistant, when left untreated and treated with 1% Juglone, respectively.
# [5] = tested on: Amaranthus rudis JD Sauer (Waterhemp), Group 2,4,5,14,9,27 Resistant; test: Post-emergent treatment of potted weeds with herbicide composition, 7 day growth (FIG. 2); conditions: 1% Juglone; weeds about 0-2 weeks post emergent (about 2-5 cm); 7 days after treatment
# Protocol: as §1
# FIG. 2 is a picture of three pots showing 7 day growth of Amaranthus rudis JD Sauer (Waterhemp), Group 2,4,5,14,9,27 Resistant, when left untreated, treated with 1% Juglone, and treated with a control (i.e. solvent/surfactant, no active ingredient), respectively.
# [6] = tested on: Amaranthus powelli (Powell's Amaranth), Group 2,5 resistant; test: Post-emergent treatment of potted weeds with herbicide composition, 7 day growth (FIG. 1); conditions: 1% Juglone, weeds about 0-2 weeks post emergent (about 2-5 cm), 7 days after treatment
# Protocol: as §1
# Specifically, FIG. 1 is a picture of three pots showing 7 day growth of Amaranthus powelli (Powell's Amaranth), Group 2,5 resistant, when left untreated, treated with 1% Juglone, and treated with a control (i.e. solvent/surfactant, no active ingredient), respectively.
# [7] = tested on: Amaranthus rudis JD Sauer (Waterhemp), non-resistant; test: Post-emergent treatment of potted weeds with herbicide composition, 7 day growth (FIG. 3); conditions: 1% Juglone; weeds about 0-2 weeks post emergent (about 2-5 cm); 7 days after treatment
# Protocol: as §1
# FIG. 3 is a picture of three pots showing 7 day growth of Amaranthus rudis JD Sauer (Waterhemp), non-resistant, when left untreated, treated with 1% Juglone, and treated with a control (i.e. solvent/surfactant, no active ingredient), respectively.
structure (smiles),measurement,setting,value
"O=C1C=CC(=O)c2c(O)cccc21 [Juglone, 5-hydroxy-1,4-naphthalenedione]","control of growth of Amaranthus hybridus L. (smooth pigweed), Group 2,5 Resistant",[1],effectively controlled the growth
same,"control of growth of Solanum ptycanthum (eastern black nightshade), Group 2 Resistant",[2],effectively controlled the growth
same,time to observed plant damage after treatment,weeds,two
same,"control of growth of Chenopodium album L. (lamb's quarters), Group 2,5 Resistant",[3],effectively controlled the growth
same,"control of growth of Amaranthus retroflexus L. (pigweed), Group 2,5 Resistant",[4],effectively controlled the growth
same,"control of growth of Amaranthus rudis JD Sauer (Waterhemp), Group 2,4,5,14,9,27 Resistant",[5],effectively controlled the growth; also recorded: did control the growth
same,control of growth of Amaranthus powelli,[6],effectively controlled the growth
same,"control of growth of Amaranthus rudis JD Sauer (Waterhemp), non-resistant",[7],did not effectively control the growth

# Source: patent US20210029994A1, “HERBICIDE COMPOSITIONS AND METHODS OF CONTROLLING GROWTH OF PLANTS” (priority 2019, published 2021)
